Results: paper PMC8850458, “The AUTOTAC chemical biology platform for targeted protein degradation via the autophagy-lysosome system” (Nature Communications, 2022)
“And” between values parts separate entries of the source, which are not always exact repeats. Equal entries are not always repeated.

Assays:
[1] = target: T1, methionine aminopeptidase 2 (MetAP2) (Homo sapiens, UniProt P50579); test: Western blot degradation of MetAP2; type: cell-based; details: 293T, 24 h
T1 construct: Targeted autophagic degradation of endogenous oncoproteins by AUTOTAC; endogenous in cells; host or cells: HEK293 / HEK293T, U87-MG
T1 sequence (P50579 whole entry): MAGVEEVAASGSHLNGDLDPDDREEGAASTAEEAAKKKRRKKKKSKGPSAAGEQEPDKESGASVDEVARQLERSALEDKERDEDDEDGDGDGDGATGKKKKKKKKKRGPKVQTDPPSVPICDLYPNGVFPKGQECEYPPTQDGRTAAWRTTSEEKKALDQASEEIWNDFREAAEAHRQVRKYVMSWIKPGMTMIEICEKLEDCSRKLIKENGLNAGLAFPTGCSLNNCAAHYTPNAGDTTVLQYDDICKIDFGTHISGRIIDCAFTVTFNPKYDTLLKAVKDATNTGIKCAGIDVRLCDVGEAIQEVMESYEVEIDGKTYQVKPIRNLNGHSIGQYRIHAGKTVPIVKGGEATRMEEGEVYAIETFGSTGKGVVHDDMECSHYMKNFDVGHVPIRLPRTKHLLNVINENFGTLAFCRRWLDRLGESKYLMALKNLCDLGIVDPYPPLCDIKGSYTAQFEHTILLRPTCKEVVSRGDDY
Experimental: Adherent cells were washed with phosphate-buffered saline (PBS) and cell pellets were lysed in SDS-based sample buffer (277.8 mM Tris-HCI, pH 6.8, 4.4% LDS, 44.4% (v/v) glycerol) containing beta-mercaptoethanol. Alternatively, cell pellets or protein supernatants were lysed in 5X Laemmli sample buffer. Whole-cell lysates were separated using SDS-PAGE, and transferred onto polyvinyllidene difluoride membranes at 100 V for 2 h at 4 °C. The membrane was incubated with a blocking solution consisting 4% skim milk in PBS solution for 30 min at room temperature and incubated with primary antibodies overnight, followed by incubation with host-specific HRP-conjugated secondary antibodies (1:10000 dilution). For signal detection, the membrane was developed with a mixture of ECL solution (Thermo Fisher Scientific) using X-ray films. Densitometry of developed bands was measured and analyzed with ImageJ (NIH, Bethesda).

ACHN cells = test: WST-based cell viability assay in ACHN cells; details: for WST assay viability, AVG % / WST assay raw reading / WST assay viability relative to con = 100: ACHN; for WST assay raw reading / WST assay viability relative to con = 100: duplicates
[2] = test system: U87-MG glioblastoma cells; test: Wound healing assay in U87-MG cells; type: cell-based; parameters: wound area, single experiment / wound area, Average: unit not given here; details: Fig. S4j
Experimental: To analyze cell migration in two dimensions, U-87 MG or ACHN cells were plated to a monolayer. Cells were scratched with a sterile 10 μl pipette tip and the debris was removed using medium. Cells were treated with compounds and incubated for different time to monitor cell behavior. Photographs were obtained using a microscope at different time point.

[3] = 4h, relative to 0h, con 63.7844
[4] = 12h, relative to 0h, con 49.0497
[5] = 24h, relative to 0h, con 11.2855

`CO[C@@H]1[C@H](OC(=O)/C=C/C=C/C=C/C=C/C(=O)O)CC[C@]2(CO2)[C@H]1[C@@]1(C)O[C@@H]1CC=C(C)C` [Fumagillin, reference compound] was tested, and the “MetAP2 normalized to control, AVG %” value ([1]; 2.5uM) was 147.616% and the “MetAP2 normalized to control, AVG %” value ([1]; 10uM) was 145.983%.

In the case of `Oc1ccc(-c2c(-c3ccccc3)nn3c(C(F)(F)F)cc(C(F)(F)F)nc23)cc1` [PHTPP, reference compound], the IC50 (ACHN cells; ACHN cells, WST-based viability assay, read-out: cytotoxicity IC50) is reported as 18 µM, the “WST assay viability, AVG %” value (ACHN cells; 0.01uM) is reported as 98.8656% and the “WST assay raw reading” value (ACHN cells; 0.01uM) is reported as 1.014 and 0.955. For the same molecule, the “WST assay viability relative to con = 100” value (ACHN cells; 0.01uM) was 102.269 and 95.4624, the “WST assay viability, AVG %” value (ACHN cells; 0.1uM) was 95.5201% and the “WST assay raw reading” value (ACHN cells; 0.1uM) was 0.951 and 0.96. The “WST assay viability relative to con = 100” value (ACHN cells; 0.1uM) was 95.001 and 96.0392, the “WST assay viability, AVG %” value (ACHN cells; 1uM) was 90.0981% and the “WST assay raw reading” value (ACHN cells; 1uM) was 0.95 and 0.867. For the same molecule, the “WST assay viability relative to con = 100” value (ACHN cells; 1uM) was 94.8856 and 85.3105, the “WST assay viability, AVG %” value (ACHN cells; 10uM) was 86.1757% and the “WST assay raw reading” value (ACHN cells; 10uM) was 0.866 and 0.883. For the same molecule, the “WST assay viability relative to con = 100” value (ACHN cells; 10uM) was 85.1952 and 87.1563, the “WST assay viability, AVG %” value (ACHN cells; 50uM) was 10.8441% and the “WST assay raw reading” value (ACHN cells; 50uM) was 0.239 and 0.204. For the same molecule, the “WST assay viability relative to con = 100” value (ACHN cells; 50uM) was 12.8629 and 8.825, the “WST assay viability, AVG %” value (ACHN cells; 100uM) was 2.365% and the “WST assay raw reading” value (ACHN cells; 100uM) was 0.151 and 0.145. The “WST assay viability relative to con = 100” value (ACHN cells; 100uM) was 2.711 and 2.019.

With `COC1C(OC(=O)C=CC=CC=CC=CC(=O)NCCOCCOCCNCc2cccc(OCc3ccccc3)c2)CCC2(CO2)C1C1(C)OC1CC=C(C)C` (stereo not drawn) [fuma-105] the “wound area, single experiment” value ([2]; 0h) was 1322200 and 1143900 and 1293400, the “wound area, Average %” value ([2]; 0h (reference = 100)) was 100% and the “wound area, Average” value ([2]; 0h, con 1278325) was 1253167. For the same molecule, the “wound area, single experiment” value ([2]; 4h) was 1229909 and 1112400 and 1025300, the “wound area, Average” value ([2]; 4h, con 815372) was 1122536 and the “wound area, Average %” value [2, 3] was 89.576%. The “wound area, single experiment” value ([2]; 12h) was 999235 and 1073250 and 992572, the “wound area, Average” value ([2]; 12h, con 627015) was 1021686 and the “wound area, Average %” value [2, 4] was 81.5283%. For the same molecule, the “wound area, single experiment” value ([2]; 24h) was 562341 and 671624 and 616277, the “wound area, Average” value ([2]; 24h, con 144265) was 616747 and the “wound area, Average %” value [2, 5] was 49.2151%.

`COC1C(OC(=O)C=CC=CC=CC=CC(=O)O)CCC2(CO2)C1C1(C)OC1CC=C(C)C` (stereo not drawn) [fuma] was tested, and the “wound area, single experiment” value ([2]; 0h) was 1171666 and 1405232 and 1275616, the “wound area, Average %” value ([2]; 0h (reference = 100)) was 100% and the “wound area, Average” value ([2]; 0h, con 1278325) was 1284171. The “wound area, single experiment” value ([2]; 4h) was 1044299 and 1099925 and 1033344, the “wound area, Average” value ([2]; 4h, con 815372) was 1059189 and the “wound area, Average %” value [2, 3] was 82.4804%. For the same molecule, the “wound area, single experiment” value ([2]; 12h) was 806233 and 764432, the “wound area, Average” value ([2]; 12h, con 627015) was 778366 and the “wound area, Average %” value [2, 4] was 60.6123%. For the same molecule, the “wound area, single experiment” value ([2]; 24h) was 429520 and 509220, the “wound area, Average” value ([2]; 24h, con 144265) was 482653 and the “wound area, Average %” value [2, 5] was 37.5848%.
